# Experimental data as given in article PMC11191095, “QSAR Reveals Decreased Lipophilicity of Polar Residues Determines the Selectivity of Antimicrobial Peptide Activity” (ACS Omega, 2024).
# Where a SMILES comes first, the peptide text is derived from it.
# Experiments:
# [1] = RP-HPLC ElutionTime as indicator of hydrophobicity; format: physicochemical; conditions: indicator of overall hydrophobicity; semipreparative RP-HPLC, Waters SymmetryPrep C8, water/ACN gradient with 0.1% TFA, 8 mL/min, 25 °C, 254 nm
# Experimental: Crude peptides, made up to 10 mg/mL in 0.1% TFA (v/v) in ddH2O, were subjected to preparative RP-HPLC purification on an Agilent 1100 system, with elution in gradient. A gradient program at a flow rate of 8 mL/min and column temperature of 25 °C was used to achieve elution with solvent A (0.1% trifluoroacetic acid (TFA) in water (v/v)) and solvent B (0.1% TFA in 100% acetonitrile (ACN) (v/v)). The elution program was as follows: (1) At 0–73 min, 100% solvent A to 0% solvent B; (2) at 73–77 min, 40% solvent A to 60% solvent B; (3) at 77–93 min, 10% solvent A to 90% solvent B; (4) at 93–105 min, 100% solvent A to 0% solvent B. Data collected were the retention time of the major fraction for each peptide in minutes as RP-HPLC ElutionTime (ElutionTime). Absorbance was detected at 254 nm, and fractions were collected manually. The fractions collected were spun in a speed-vac to remove ACN and the contents lyophilized. After freeze-drying for 24 h the peptides were dissolved in 10% (v/v) acetic acid before being lyophilized for a second time and then stored at −20 °C.
# Molecular descriptors used in the QSAR analysis included: charge, sequence length, overall lipophilicity (L), lipophilicity contributed by the polar or nonpolar residues (LP and LN), summation of the side chain surface areas of the total peptide, polar or nonpolar residues (SCSA, SCSAP, and SCSAN), the molecular weight of the entire peptide, polar or nonpolar residues (Mw, MwP, and MwN), count of small lipophilic residues (CSL) or aromatic residues (CAR), the total number of hydrogen bond donor and acceptor centers (HBtot, HBdon, and HBacc), the total number of rotatable bonds (#RotBonds) and various amphipathicity descriptors (LP/L, LP/LN, L/LN, Q/L, Q/LN, SCSAP/SCSAN, MwP/MwN, Q/CSL, and Q/CAR) (Suppl. Table S1). Experimentally determined characteristics included ElutionTime as an indicator of overall peptide hydrophobicity and the CD structure of each peptide determined in POPG/POPE lipids representing Gram-negative membranes, POPG lipids for Gram-positive membranes, and SDS micelles for fungal membranes. AMPs with an α-helical structure were labeled 4, β-sheets were labeled 3, β-turns and mixed conformations were labeled 2, and disordered structures were labeled 1.
# [2] = tested on: S. aureus (MRSA) 1199B; assay: microbe, parasite or virus in culture; format: cell-based, Staphylococcus aureus; conditions: S. aureus (MRSA) 1199B (R)
# Procedure, shortened: (§1)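 Peptides 128→2 μg/mL, 2-fold series; inoculum ~5 × 10^5 CFU/mL from overnight culture (OD600 0.01, mixed 1:1). MHB non-cation-adjusted for bacteria, RPMI 1640 + 2% glucose for fungi. 37 °C, 20 h, OD600. MIC50/MIC90 at 50%/90% inhibition; n ≥ 3.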
# [3] = tested on: human erythrocytes; assay: In vitro hemolytic activity; format: cell-based; conditions: 1 h
# Procedure, shortened: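 Serial peptide dilutions in PBS mixed 1:1 with fresh erythrocytes, 1 h at 37 °C; supernatant OD550 measured after centrifugation. Hemolysis normalized to 0.1% Triton X-100 (full lysis) and PBS (none); HC10 and HC50 taken from dose–response curves.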
# [4] = tested on: HaCat cell line; assay: In vitro HaCat cytotoxicity (MTT); format: cell-based, human; conditions: 21 h exposure, OD570, relative to untreated control
# Procedure, shortened: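 HaCat keratinocytes were first screened with peptide at 256 μg/mL for 21 h at 37 °C, and a dose-response was run only when cytotoxicity reached p < 0.0001. Viability was read by MTT (3 h, OD570) relative to untreated control, and LC50 was taken from the dose-response curves.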
# [5] = tested on: P. aeruginosa PAO1; assay: microbe, parasite or virus in culture; format: cell-based, Pseudomonas aeruginosa; conditions: P. aeruginosa PAO1 (S)
# Procedure, shortened: as §1
# [6] = MHB, 37 °C, 20 h, OD600, min. three biological repeats
# [7] = human erythrocytes in PBS, 37 °C, OD550, from dose response curves
Molecule,ElutionTime (RP-HPLC retention time of major fraction) [1],"Modal MIC [2, 6] [µg/mL]",Modal MIC ([2]; shown in µM) [µM],"HC10 (concentration causing 10% hemolysis) [3, 7] [µg/mL]","HC50 (concentration causing 50% hemolysis) [3, 7] [µg/mL]","% hemolysis ([3]; red cells of human, 256 μg/mL) [%]",% HaCat cell death at initial screening (256μg/mL) ± SD [4] [%],"Modal MIC [5, 6] [µg/mL]",Modal MIC ([5]; shown in µM) [µM],% HaCat cell death at initial screening (256μg/mL) ± SD ([4]; listed as Os(11–22)a) [%]
CC(C)[C@H](NC(=O)CNC(=O)[C@H](CCCNC(=N)N)NC(=O)[C@H](CCCNC(=N)N)NC(=O)[C@H](CS)NC(=O)[C@@H](NC(=O)[C@H](CS)NC(=O)[C@@H](N)CCCNC(=N)N)C(C)C)C(=O)N[C@@H](CS)C(=O)N[C@@H](CCCNC(=N)N)C(=O)N[C@@H](CS)C(=O)N[C@H](C(=O)N[C@@H](CS)C(=O)N[C@@H](CCCNC(=N)N)C(=O)N[C@@H](CCCNC(=N)N)C(N)=O)C(C)C [BTD15a] (H-RCVCRRGVCRCVCRR-NH2; N-terminus assumed),20 min,8,4.4,9,33,100,20,–,–,–
CC[C@H](C)[C@H](NC(=O)[C@H](CCCCN)NC(=O)[C@H](CC(C)C)NC(=O)[C@H](C)NC(=O)[C@H](C)NC(=O)[C@H](CCCCN)NC(=O)[C@H](CC(C)C)NC(=O)[C@H](C)NC(=O)[C@@H](N)CCCCN)C(=O)NCC(N)=O [CPF-P3-10a] (H-KALKAALKIG-NH2),–,> 128,> 122,–,–,–,–,> 128,> 122,–
CC[C@H](C)[C@H](NC(=O)[C@H](CCCCN)NC(=O)[C@H](CC(C)C)NC(=O)[C@H](C)NC(=O)[C@H](C)NC(=O)[C@H](CCCCN)NC(=O)[C@H](CC(C)C)NC(=O)[C@H](C)NC(=O)[C@@H](N)CCCCN)C(=O)NCC(=O)N[C@@H](C)C(=O)N[C@@H](CC(N)=O)C(N)=O [CPF-P3-12a] (H-KALKAALKIGAN-NH2),–,> 128,> 103.8,–,–,–,–,> 128,> 103.8,–
CC[C@H](C)[C@H](NC(=O)CNC(=O)[C@@H](N)CCCNC(=N)N)C(=O)N[C@@H](CCCNC(=N)N)C(=O)NCC(=O)N[C@@H](Cc1ccc(O)cc1)C(=O)N[C@@H](CCCCN)C(=O)NCC(=O)NCC(=O)N[C@@H](Cc1ccc(O)cc1)C(=O)N[C@@H](CS)C(=O)N[C@H](C(=O)NCC(=O)N[C@@H](CCCNC(=N)N)C(=O)N[C@@H](Cc1ccccc1)C(=O)N[C@@H](CCCCN)C(=O)N[C@@H](CCC(N)=O)C(=O)N[C@H](C(=O)N[C@@H](CS)C(=O)N[C@@H](CCCCN)C(=O)N[C@@H](CS)C(=O)N[C@@H](Cc1ccc(O)cc1)C(=O)O)[C@@H](C)O)[C@@H](C)O [OmDefB] (H-RGIRGYKGGYCTGRFKQTCKCY-OH; N-terminus and C-terminus assumed),25 min,> 128,> 49.9,–,–,–,–,> 128,> 49.9,–
CC[C@H](C)[C@H](NC(=O)[C@@H](N)Cc1c[nH]c2ccccc12)C(=O)N[C@@H](CCCCN)C(=O)N[C@@H](CO)C(=O)N[C@H](C(=O)N[C@@H](C)C(=O)N[C@@H](CCCCN)C(=O)N[C@@H](CCCCN)C(N)=O)[C@@H](C)O [Opis8a] (H-WIKSTAKK-NH2),–,> 128,> 133.2,–,–,–,–,> 128,> 133.2,–
CC[C@H](C)[C@H](N)C(=O)N[C@@H](CCCNC(=N)N)C(=O)NCC(=O)N[C@@H](Cc1ccc(O)cc1)C(=O)N[C@@H](CCCCN)C(=O)NCC(=O)NCC(=O)N[C@@H](Cc1ccc(O)cc1)C(=O)N[C@@H](CS)C(=O)N[C@@H](CCCCN)C(N)=O [Os(3-12)a] (H-IRGYKGGYCK-NH2),–,> 128,> 112,–,–,–,–,> 128,> 112,–
C[C@H](NC(=O)CNC(=O)[C@H](CCCCN)NC(=O)[C@@H](N)CS)C(=O)N[C@@H](Cc1ccccc1)C(=O)N[C@@H](CCCCN)C(=O)N[C@@H](CCC(N)=O)C(=O)N[C@H](C(=O)N[C@@H](CS)C(=O)N[C@@H](CCCCN)C(=O)N[C@@H](CS)C(=O)N[C@@H](Cc1ccc(O)cc1)C(N)=O)[C@@H](C)O [Os(11-22)a] (H-CKGAFKQTCKCY-NH2; N-terminus assumed),"21,3 min",> 128,> 91.7,–,–,–,59.5 ±13.9,> 128,> 91.7,59.5
CC[C@H](C)[C@H](NC(=O)CNC(=O)[C@@H](N)CCCCN)C(=O)N[C@@H](CCCNC(=N)N)C(=O)NCC(=O)N[C@@H](Cc1ccc(O)cc1)C(=O)N[C@@H](CCCCN)C(=O)NCC(=O)NCC(=O)N[C@@H](Cc1ccc(O)cc1)C(=O)N[C@@H](CS)C(=O)N[C@@H](CCCCN)C(=O)NCC(=O)N[C@@H](C)C(=O)N[C@@H](Cc1ccccc1)C(=O)N[C@@H](CCCCN)C(=O)N[C@@H](CCC(N)=O)C(=O)N[C@H](C(=O)N[C@@H](CS)C(=O)N[C@@H](CCCCN)C(=O)N[C@@H](CS)C(=O)N[C@@H](Cc1ccc(O)cc1)C(=O)O)[C@@H](C)O [Os] (H-KGIRGYKGGYCKGAFKQTCKCY-OH; N-terminus and C-terminus assumed),"24,7 min",> 128,> 51.7,–,–,–,–,> 128,> 51.7,–
CC[C@H](C)[C@H](NC(=O)CNC(=O)[C@@H](N)CCCCN)C(=O)N[C@@H](CCCNC(=N)N)C(=O)NCC(=O)N[C@@H](Cc1ccc(O)cc1)C(=O)N[C@@H](CCCCN)C(=O)NCC(=O)NCC(=O)N[C@@H](Cc1ccc(O)cc1)C(=O)N[C@@H](CS)C(=O)N[C@@H](CCCCN)C(=O)NCC(=O)N[C@@H](C)C(=O)N[C@@H](Cc1ccccc1)C(=O)N[C@@H](CCCCN)C(=O)N[C@@H](CCC(N)=O)C(=O)N[C@H](C(=O)N[C@@H](CS)C(=O)N[C@@H](CCCCN)C(=O)N[C@@H](CS)C(=O)N[C@@H](Cc1ccc(O)cc1)C(N)=O)[C@@H](C)O [Osa] (H-KGIRGYKGGYCKGAFKQTCKCY-NH2; N-terminus assumed),"24,5 min",> 128,> 51.7,–,–,–,–,> 128,> 51.7,–
CC(C)C[C@H](NC(=O)[C@H](CCCCN)NC(=O)[C@H](CO)NC(=O)[C@H](CCCCN)NC(=O)[C@@H](N)Cc1c[nH]c2ccccc12)C(=O)N[C@@H](C)C(=O)N[C@@H](CCCCN)C(=O)N[C@@H](CCCCN)C(N)=O [PS-PB-8a] (H-WKSKLAKK-NH2),–,> 128,> 127.2,–,–,–,–,> 128,> 127.2,–
CC(C)C[C@H](NC(=O)[C@H](CCCCN)NC(=O)[C@H](CO)NC(=O)[C@H](CCCCN)NC(=O)[C@H](Cc1c[nH]c2ccccc12)NC(=O)[C@H](C)NC(=O)[C@H](CCCCN)NC(=O)[C@@H](N)CCCCN)C(=O)N[C@@H](C)C(=O)N[C@@H](CCCCN)C(=O)N[C@@H](CCCCN)C(=O)N[C@@H](CC(C)C)C(=O)N[C@@H](CCCNC(=N)N)C(=O)N[C@@H](C)C(=O)N[C@@H](CCCCN)C(=O)NCC(=O)N[C@@H](CCCCN)C(N)=O [PS-PB-14a] (H-KKAWKSKLAKKLRAKGK-NH2),–,> 128,> 63.8,–,–,–,–,> 128,> 63.8,–
"KCLTLRSLKKTLKFCASGRT-NH2 [X1-20a, novel amidated frog AMP derivative, Xenopus laevis]","31,7 min",–,> 55,–,–,–,–,> 128,> 55,–
